In patent publication US9321756B2, “Azole compounds as PIM inhibitors” (priority 2011, dated 2016):
Read-outs that look alike come from different tables or passages of the source.

Legend:
[1] = target: full length recombinant Pim-1 (Homo sapiens (Human), UniProt P11309); test: Pim enzyme assay (HTRF, phosphorylation of biotinylated-BAD (S112) peptide), Pim-1; type: biochemical; conditions: read-out: Pim_1_IC50
[2] = target: full length recombinant Pim-2 (Homo sapiens (Human), UniProt Q9P1W9); test: Pim enzyme assay (HTRF, phosphorylation of biotinylated-BAD (S112) peptide), Pim-2; type: biochemical; conditions: read-out: Pim2_IC50
full length recombinant Pim-2, sequence (Q9P1W9 whole entry): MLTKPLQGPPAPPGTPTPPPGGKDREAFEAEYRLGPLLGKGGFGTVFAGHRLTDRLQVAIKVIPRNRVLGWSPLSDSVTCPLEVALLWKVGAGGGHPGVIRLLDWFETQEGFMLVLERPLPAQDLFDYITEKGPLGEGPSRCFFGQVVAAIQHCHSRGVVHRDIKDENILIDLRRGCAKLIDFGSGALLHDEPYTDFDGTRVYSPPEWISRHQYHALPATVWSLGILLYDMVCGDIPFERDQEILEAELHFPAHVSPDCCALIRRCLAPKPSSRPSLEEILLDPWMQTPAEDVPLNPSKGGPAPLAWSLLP

[3] = target: full length recombinant Pim-3 (Homo sapiens (Human), UniProt Q86V86); test: Pim enzyme assay (HTRF, phosphorylation of biotinylated-BAD (S112) peptide), Pim-3; type: biochemical; conditions: read-out: Pim3 IC50
In short: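 Full-length recombinant Pim-3 phosphorylated biotinylated BAD (S112) peptide in 60 mM Hepes pH 7.0, 0.05% BSA, 2 mM DTT for 1 h 30 min at 22 °C. After EDTA stop, HTRF was read with Eu anti-phospho-BAD and streptavidin-APC. IC50 came from 4-parameter logistic fit of percent-of-control values.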

[4] = system: Pim-1 stably transfected U2OS human osteogenic sarcoma line; test: Pim cell assay U2OS (phospho-BAD normalized against total BAD), Pim-1 transfected; type: cell-based; conditions: Homo sapiens, U2OS
[5] = system: Pim-2 stably transfected U2OS human osteogenic sarcoma line; test: Pim cell assay U2OS (phospho-BAD normalized against total BAD), Pim-2 transfected; type: cell-based; conditions: Homo sapiens, read-out: U2OS Pim2_Cell_IC50
[6] = read-out: U2OS Pim1_Cell_IC50, U2OS cells, Pim-1 transfected

full length recombinant Pim-1, sequence (P11309 whole entry): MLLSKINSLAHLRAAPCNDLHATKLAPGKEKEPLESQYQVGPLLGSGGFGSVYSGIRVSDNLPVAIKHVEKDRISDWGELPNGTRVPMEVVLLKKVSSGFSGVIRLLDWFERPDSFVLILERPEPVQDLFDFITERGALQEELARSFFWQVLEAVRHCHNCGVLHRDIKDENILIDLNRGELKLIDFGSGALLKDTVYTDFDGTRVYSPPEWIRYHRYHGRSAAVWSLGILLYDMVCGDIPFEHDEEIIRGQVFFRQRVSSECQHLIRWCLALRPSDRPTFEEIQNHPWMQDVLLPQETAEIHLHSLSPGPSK

SMILES | IC50 ([1]; Pim-1 enzyme assay) [nM] | IC50 ([2]; Pim-2 enzyme assay) [nM] | IC50 ([3]; Pim-3 enzyme assay) [nM] | IC50 ([4]; read-out: U2OS Pim1_Cell_IC50) [nM] | IC50 ([5]; U2OS cells, Pim-2 transfected) [nM] | IC50 [4, 6] [nM] | IC50 [1] [nM] | IC50 [2] [nM] | IC50 [3] [nM] | IC50 ([5]; U2OS) [nM]
CNc1nnc(-c2ccc3[nH]cc(-c4cccc(-n5cnc(C)c5)n4)c3c2)s1 [Example 228, N-methyl-5-(3-(6-(4-methyl-1H-imidazol-1-yl)-2-pyridinyl)-1H-indol-5-yl)-1,3,4-thiadiazol-2-amine] | 13.2 | 8.28 | 1.5 | > 31600 | > 31600 |  |  |  |  | 
Nc1nnc(-c2ccc3[nH]cc(-c4cccc(-n5cccn5)n4)c3c2)s1 [Example 180, 5-(3-(6-(1H-pyrazol-1-yl)-2-pyridinyl)-1H-indol-5-yl)-1,3,4-thiadiazol-2-amine] | 82.1 | 49.5 | 26.6 | 926 | 5460 |  |  |  |  | 
CC(C)Nc1nnc(-c2ccc3[nH]cc(-c4cncc(C5CC5)n4)c3c2)o1 [Example 46, 5-(3-(6-cyclopropylpyrazin-2-yl)-1H-indol-5-yl)-N-isopropyl-1,3,4-oxadiazol-2-amine] | 1.39 | 4.25 | 0.498 | 32.1 | 827 |  |  |  |  | 
CCOc1cccc(-c2c[nH]c3ccc(-c4nnc(N)s4)cc23)n1 [Example 164, 5-(3-(6-ethoxy-2-pyridinyl)-1H-indol-5-yl)-1,3,4-thiadiazol-2-amine] | 14.7 | 21.6 | 3.25 | 141 | 3730 |  |  |  |  | 
c1ccc(-c2nnc(-c3ccc4[nH]cc(-c5cncc(C6CC6)n5)c4c3)o2)cc1 [Example 254, 3-(6-cyclopropyl-2-pyrazinyl)-5-(5-phenyl-1,3,4-oxadiazol-2-yl)-1H-indole] | 175 | > 1000 | 138 | > 15800 | 808 |  |  |  |  | 
CC(C)Cn1cc(-c2c[nH]c3ccc(-c4nnc(N)o4)cc23)cn1 [Example 80, 5-(3-(1-(2-methylpropyl)-1H-pyrazol-4-yl)-1H-indol-5-yl)-1,3,4-oxadiazol-2-amine] | 47 | 78 | 67.1 | 142 | 3660 |  |  |  |  | 
Nc1nnc(-c2ccc3[nH]cc(-c4cncc(N5CCOCC5)n4)c3c2)o1 [Example 90, 5-(3-(6-(4-morpholinyl)-2-pyrazinyl)-1H-indol-5-yl)-1,3,4-oxadiazol-2-amine] | 8.91 | 13.4 | 6.46 | 374 | 5420 |  |  |  |  | 
Cc1cn(-c2nc(-c3c[nH]c4ccc(-c5nnc(N)s5)cc34)cs2)cn1 [Example 170, 5-(3-(2-(4-methyl-1H-imidazol-1-yl)-1,3-thiazol-4-yl)-1H-indol-5-yl)-1,3,4-thiadiazol-2-amine] | 34.8 | 100 | 9.47 | 876 | > 31600 |  |  |  |  | 
Cc1nccn1-c1cccc(-c2c[nH]c3ccc(-c4nnc(N)s4)cc23)n1 [Example 169, 5-(3-(6-(2-methyl-1H-imidazol-1-yl)-2-pyridinyl)-1H-indol-5-yl)-1,3,4-thiadiazol-2-amine] | 26.4 | 23.8 | 11.8 |  | > 31600 | 1810 |  |  |  | 
CNc1nnc(-c2ccc3[nH]cc(-c4nccc(N5CCC[C@H](N)C5)n4)c3c2)s1 [Example 128, (3S)-1-(2-(5-(5-(methylamino)-1,3,4-thiadiazol-2-yl)-1H-indol-3-yl)-4-pyrimidinyl)-3-piperidinamine] | 2.91 | 1.53 | 0.734 |  | 15900 | 13800 |  |  |  | 
Nc1nnc(-c2ccc3[nH]cc(-c4cncc(N5CCCCC5)n4)c3c2)o1 [Example 89, 5-(3-(6-(1-piperidinyl)-2-pyrazinyl)-1H-indol-5-yl)-1,3,4-oxadiazol-2-amine] | 2.11 | 4.77 | 1.83 |  | 692 | 59.9 |  |  |  | 
CN1CCN(c2cccc(-c3c[nH]c4ccc(-c5nnc(N)s5)cc34)n2)CC1 [Example 13, 5-(3-(6-(4-methylpiperazin-1-yl)pyridin-2-yl)-1H-indol-5-yl)-1,3,4-thiadiazol-2-amine] |  |  |  |  |  | 198 | 2.02 | 10.9 | 0.625 | 3010
Cc1ccn(-c2cccc(-c3c[nH]c4ccc(-c5nnc(N)s5)cc34)n2)n1 [Example 179, 5-(3-(6-(3-methyl-1H-pyrazol-1-yl)-2-pyridinyl)-1H-indol-5-yl)-1,3,4-thiadiazol-2-amine] | 77 | 64.6 | 24.1 | 816 | > 31600 |  |  |  |  | 
CC(C)Nc1cncc(-c2c[nH]c3ccc(-c4nnc(N)o4)cc23)n1 [Example 101, 6-(5-(5-amino-1,3,4-oxadiazol-2-yl)-1H-indol-3-yl)-N-(1-methylethyl)-2-pyrazinamine] | 1.5 | 4.03 | 0.901 |  | 809 | 66.4 |  |  |  | 
Cc1cn(-c2cccc(-c3c[nH]c4ccc(-c5nnc(N)s5)cc34)n2)cn1 [Example 155, 5-(3-(6-(4-methyl-1H-imidazol-1-yl)-2-pyridinyl)-1H-indol-5-yl)-1,3-4-thiadiazol-2-amine] | 4.42 | 2.25 | 0.425 |  | > 31600 | 259 |  |  |  | 
Nc1nnc(-c2ccc3[nH]cc(-c4cncc(NC5CCCC5)n4)c3c2)s1 [Example 17, 5-(3-(6-(cyclopentylamino)pyrazin-2-yl)-1H-indol-5-yl)-1,3,4-thiadiazol-2-amine 2,2,2-trifluoroacetate] |  |  |  | 56.6 |  |  | 1.5 | 5.92 | 0.763 | 1220
CC(Oc1cncc(-c2c[nH]c3ccc(-c4nnc(N)s4)cc23)n1)C(F)(F)F (stereo not shown) [Example 211, 5-(3-(6-(2,2,2-trifluoro-1-methylethoxy)-2-pyrazinyl)-1H-indol-5-yl)-1,3,4-thiadiazol-2-amine] | 24.5 | 53.7 | 13.2 | 192 | 2800 |  |  |  |  | 
Nc1nnc(-c2ccc3[nH]cc(-c4cncc(-c5cccc(F)c5)n4)c3c2)o1 [Example 119, 5-(3-(6-(3-fluorophenyl)-2-pyrazinyl)-1H-indol-5-yl)-1,3,4-oxadiazol-2-amine] | 6.07 | 10.7 | 2.15 | 85 | > 31600 |  |  |  |  | 
Nc1nnc(-c2ccc3[nH]cc(-c4ccnc(N5CCOCC5)n4)c3c2)s1 [Example 133, 5-(3-(2-(4-morpholinyl)-4-pyrimidinyl)-1H-indol-5-yl)-1,3,4-thiadiazol-2-amine] | 13.4 | 19.4 | 4 |  | 8060 | 535 |  |  |  | 
CN1CCN(c2cncc(-c3c[nH]c4ccc(-c5nnc(N)s5)cc34)n2)CC1=O [Example 18, 4-(6-(5-(5-amino-1,3,4-thiadiazol-2-yl)-1H-indol-3-yl)pyrazin-2-yl)-1-methylpiperazin-2-one] | 15.8 | 89.2 | 7.41 | > 31600 | > 31600 |  |  |  |  | 
CC(C)Nc1cccc(-c2c[nH]c3ccc(-c4nnc(N)s4)cc23)n1 [Example 203, 6-(5-(5-amino-1,3,4-thiadiazol-2-yl)-1H-indol-3-yl)-N-(1-methylethyl)-2-pyridinamine] | 20.9 | 37.2 | 5.42 |  | 2190 | 384 |  |  |  | 
CC1(C)CNc2ncc(-c3c[nH]c4ccc(-c5nnc(N)s5)cc34)nc21 [Example 201, 5-(3-(7,7-dimethyl-6,7-dihydro-5H-pyrrolo[2,3-b]pyrazin-2-yl)-1H-indol-5-yl)-1,3,4-thiadiazol-2-amine] | 17.9 | 32.4 | 4.93 | 387 | 3830 |  |  |  |  | 
CC(C)Oc1cncc(-c2c[nH]c3ccc(-c4nnc(N)s4)cc23)n1 [Example 159, 5-(3-(6-(1-methylethoxy)-2-pyrazinyl)-1H-indol-5-yl)-1,3,4-thiadiazol-2-amine] |  | 16.6 | 3 |  | 2220 | 91.9 | 8.2 |  |  | 
CC(C)Oc1cccc(-c2c[nH]c3ccc(-c4nnc(N5CC[C@H](N)C5)s4)cc23)n1 [Example 34, (S)-1-(5-(3-(6-Isopropoxypyridin-2-yl)-1H-indol-5-yl)-1,3,4-thiadiazol-2-yl)pyrrolidin-3-amine 2,2,2-trifluoroacetate] | 10.5 |  |  |  |  | 280 |  | 24.8 | 1.51 | > 31600
Nc1nnc(-c2ccc3[nH]cc(-c4cncc(NC5CCCC5)n4)c3c2)o1 [Example 4, 5-(3-(6-(cyclopentylamino)pyrazin-2-yl)-1H-indol-5-yl)-1,3,4-oxadiazol-2-amine] | 1.01 | 2 | 0.586 | 27 | 342 |  |  |  |  | 
c1cc2[nH]cc(-c3cncc(C4CC4)n3)c2cc1-c1nnc(N2CCNCC2)o1 [Example 246, 3-(6-cyclopropyl-2-pyrazinyl)-5-(5-(1-piperazinyl)-1,3,4-oxadiazol-2-yl)-1H-indole] | 4.19 | 21.5 | 7.11 | 450 | > 31600 |  |  |  |  | 
